Data published in US20110039763A1, “TARGETED ANTIMICROBIAL MOIETIES” (C3 JIAN, INC., priority 2009, published 2011).
Entries after “also recorded” stand apart in the source; their conditions may differ.

Tested on: microorganisms
Test: Targeting peptide binding to target microorganisms (Tables 3, 10, 12)
Details: microorganism(s) the targeting peptide binds; binding in aqueous buffers varied with peptide solubility, preferably 1x PBS

Substance | Target(s)
PF-441 (TQVHKMARGIDPGPANGIYR; Peptide with targeting and/or antimicrobial activity) | C. jeikeium
PF-463 (MVILVFSLIFIFTDNYLVYQSKSIKEDVMI; Peptide with targeting and/or antimicrobial activity) | S. epidermidis; also recorded: E. coli; also recorded: P. aeruginosa; also recorded: C. albicans; also recorded: S. pneumoniae; also recorded: E. faecalis; also recorded: M. smegmatis
PF-481 (DELYEIMDKVIEEFNKDIEQNNNNGNNEDLTENKIN; Peptide with targeting and/or antimicrobial activity) | C. jeikeium
PF-483 (EDNKDKKDKKDK; Peptide with targeting and/or antimicrobial activity) | P. mirabilis; also recorded: C. jeikeium; also recorded: C. jejuni
PF-486 (MQKEGEEDY; Peptide with targeting and/or antimicrobial activity) | S. mutans
PF-487 (MYKAIAVLAMTIMAFFIFVYPFFIVGLILG; Peptide with targeting and/or antimicrobial activity) | S. mutans; also recorded: E. coli
PF-488 (YPNEQGHHKNNLKNIIIE; Peptide with targeting and/or antimicrobial activity) | S. mutans; also recorded: E. coli
PF-489 (KVDRVSTTITEKIK; Peptide with targeting and/or antimicrobial activity) | S. mutans
PF-490 (RLILVSGNATVQK; Peptide with targeting and/or antimicrobial activity) | S. mutans; also recorded: E. coli
PF-491 (IHQYSSKPDIVGQEAKTVQQINS; Peptide with targeting and/or antimicrobial activity) | S. mutans; also recorded: E. coli
PF-492 (IQIDAASFYSISKSTIK; Peptide with targeting and/or antimicrobial activity) | S. mutans; also recorded: B. subtilis; also recorded: E. coli
PF-493 (PGAFFFCRGRGCWCGIGW; Peptide with targeting and/or antimicrobial activity) | S. mutans; also recorded: B. subtilis; also recorded: E. coli
PF-494 (FTEPLRPLQAKGQIISIKPSTSSS; Peptide with targeting and/or antimicrobial activity) | S. mutans
PF-495 (KGIYKKRTY; Peptide with targeting and/or antimicrobial activity) | S. mutans; also recorded: E. coli
PF-496 (EVTKRLVALAQQQLRG; Peptide with targeting and/or antimicrobial activity) | S. mutans; also recorded: E. coli
PF-498 (MSEEEEVSEKVYNYLRRNEFFEVRKEEFSA; Peptide with targeting and/or antimicrobial activity) | S. mutans; also recorded: E. coli
PF-500 (MGIFKEEKIKFIDCKGEEVILKIKIKDIKK; Peptide with targeting and/or antimicrobial activity) | S. mutans; also recorded: E. coli
PF-501 (GSTAHKSPIGSTNNQWGMKKTPTD; Peptide with targeting and/or antimicrobial activity) | S. mutans
PF-502 (NKGKQMQDQTGKQPIVDNG; Peptide with targeting and/or antimicrobial activity) | S. mutans
PF-503 (VVTLKDIVAVIEDQGYDVQ; Peptide with targeting and/or antimicrobial activity) | S. mutans

Substance | Target(s)
PF-504 (ILSVELSTKTSASGS; Peptide with targeting and/or antimicrobial activity) | S. mutans; also recorded: E. coli
PF-505 (GYTKDPGTGI; Peptide with targeting and/or antimicrobial activity) | S. mutans
PF-506 (SGRGFALIVVLFILLIIVGAACIR; Peptide with targeting and/or antimicrobial activity) | S. mutans; also recorded: E. coli
PF-507 (LALSIANLFKKKA; Peptide with targeting and/or antimicrobial activity) | S. mutans; also recorded: E. coli
PF-508 (VSTFGKVVKVVDEK; Peptide with targeting and/or antimicrobial activity) | S. mutans
PF-509 (EAKVQAKGEQIACNNY; Peptide with targeting and/or antimicrobial activity) | S. mutans; also recorded: B. subtilis; also recorded: E. coli
PF-510 (WYLYKKQSNQNDRGIPK; Peptide with targeting and/or antimicrobial activity) | S. mutans; also recorded: E. coli
PF-568 (TQAVQVKTAQAQQQ; Peptide with targeting and/or antimicrobial activity) | S. epidermidis
PF-570 (KKFPTEESHIQAVLEFKKLTEHPSG; Peptide with targeting and/or antimicrobial activity) | S. pneumoniae; also recorded: C. jeikeium
PF-641 (SWKCHHLAIGGSWKCHHLAI; Peptide with targeting and/or antimicrobial activity) | S. epidermidis and M. luteus and E. coli and C. albicans and MRSA and E. faecalis and C. jeikeium and C. jejuni
PF-648 (ARRYPAAGS; Peptide with targeting and/or antimicrobial activity) | S. mutans; also recorded: E. coli
PF-650 (IRSDQPGRQSRSSPRWPTGAGRHR; Peptide with targeting and/or antimicrobial activity) | Mycobacteria spp
PF-669 (RADRIESYPADGDRVITLWRNPYR; Peptide with targeting and/or antimicrobial activity) | Mycobacteria spp
PF-671 (TVSAFRTVH; Peptide with targeting and/or antimicrobial activity) | S. mutans; also recorded: E. coli
PF-673 (VRRLRM; Peptide with targeting and/or antimicrobial activity) | S. mutans; also recorded: E. coli
PF-674 (DGCDSEPALTYR; Peptide with targeting and/or antimicrobial activity) | S. mutans; also recorded: E. coli
PF-676 (AEYRGL; Peptide with targeting and/or antimicrobial activity) | S. mutans; also recorded: E. coli
PF-678 (RDRRWTRRDMYDWLESARV; Peptide with targeting and/or antimicrobial activity) | Mycobacteria spp
PF-679 (CRARFIRR; Peptide with targeting and/or antimicrobial activity) | S. mutans; also recorded: E. coli
PF-689 (SAPSG; Peptide with targeting and/or antimicrobial activity) | S. mutans; also recorded: E. coli

Substance | Target(s)
PF-701 (PRGAQSGHG; Peptide with targeting and/or antimicrobial activity) | S. mutans
PF-703 (MTTVDNIVGLVIAVALMAFLFAALLFPEKF; Peptide with targeting and/or antimicrobial activity) | Mycobacteria spp
PF-705 (GEEEGTVAD; Peptide with targeting and/or antimicrobial activity) | S. mutans; also recorded: E. coli
PF-706 (LGYGAWIGCGLGLNGFHRID; Peptide with targeting and/or antimicrobial activity) | L. pneumophila
PF-707 (IDPESIVTTNNKQDNVDEQ; Peptide with targeting and/or antimicrobial activity) | S. mutans; also recorded: E. coli
PF-709 (NKKHSPMD; Peptide with targeting and/or antimicrobial activity) | S. mutans
PF-711 (KTAGPTGTIYKTN; Peptide with targeting and/or antimicrobial activity) | S. mutans
PF-712 (QIYRHVHKVQAKSANLRLY; Peptide with targeting and/or antimicrobial activity) | S. mutans; also recorded: E. coli
PF-714 (FVVTQRMLRMYKK; Peptide with targeting and/or antimicrobial activity) | L. pneumophila
PF-716 (HGENHHHKSDEKDNDSSEKKD; Peptide with targeting and/or antimicrobial activity) | S. mutans
PF-717 (PQSEVTFENIYAPKANGGGLYGI; Peptide with targeting and/or antimicrobial activity) | E. coli
PF-720 (SLDMGK; Peptide with targeting and/or antimicrobial activity) | S. mutans
PF-724 (CYRFLTPKRPTRIS; Peptide with targeting and/or antimicrobial activity) | L. pneumophila
PF-727 (AYARCRHDYPFTLGQMQTH; Peptide with targeting and/or antimicrobial activity) | S. mutans; also recorded: E. coli
PF-728 (AIGQEQDRREYYYYSGYPYYY; Peptide with targeting and/or antimicrobial activity) | S. mutans; also recorded: E. coli
PF-731 (RHKLIRLPLSESVFCFLNNPKI; Peptide with targeting and/or antimicrobial activity) | L. pneumophila
PF-732 (DRPSQTTHHTLSSSRITGPS; Peptide with targeting and/or antimicrobial activity) | E. coli
PF-733 (VISRQMGSEAVLELFIIM; Peptide with targeting and/or antimicrobial activity) | S. mutans; also recorded: E. coli
PF-735 (YDPLFPNDKN; Peptide with targeting and/or antimicrobial activity) | S. mutans; also recorded: E. coli
